The results in this text go back to patent US8501446B2 (Vertex Pharmaceuticals Incorporated, priority 2004, dated 2013).

pKi: −log10 of the molar value.

What all share (type): biochemical
Test [1] addresses JAK2 (Homo sapiens, UniProt O60674). In words: JAK2 inhibition assay (radioactive enzyme assay, as for JAK3). The settings on record: average Ki if more than one value determined. The method in brief:
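Both kinases: poly(Glu)4Tyr substrate in 100 mM HEPES pH 7.4, 10 mM MgCl2, 1 mM DTT. Run 20 min at 25° C, TCA stop, filter-bound ³³P counted, Ki(app) fitted after background subtraction. JAK3: final [γ-³³P]ATP 5 μM, enzyme added as 2 nM solution. JAK2: final poly(Glu)4Tyr 15 μM, final ATP 12 μM.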

The target in test [2] is T1, ROCK I (AA 6-553) (Homo sapiens, UniProt Q13464).
T1 construct: ROCK I (AA 6-553)
T1 sequence (Q13464 6-553, species assumed): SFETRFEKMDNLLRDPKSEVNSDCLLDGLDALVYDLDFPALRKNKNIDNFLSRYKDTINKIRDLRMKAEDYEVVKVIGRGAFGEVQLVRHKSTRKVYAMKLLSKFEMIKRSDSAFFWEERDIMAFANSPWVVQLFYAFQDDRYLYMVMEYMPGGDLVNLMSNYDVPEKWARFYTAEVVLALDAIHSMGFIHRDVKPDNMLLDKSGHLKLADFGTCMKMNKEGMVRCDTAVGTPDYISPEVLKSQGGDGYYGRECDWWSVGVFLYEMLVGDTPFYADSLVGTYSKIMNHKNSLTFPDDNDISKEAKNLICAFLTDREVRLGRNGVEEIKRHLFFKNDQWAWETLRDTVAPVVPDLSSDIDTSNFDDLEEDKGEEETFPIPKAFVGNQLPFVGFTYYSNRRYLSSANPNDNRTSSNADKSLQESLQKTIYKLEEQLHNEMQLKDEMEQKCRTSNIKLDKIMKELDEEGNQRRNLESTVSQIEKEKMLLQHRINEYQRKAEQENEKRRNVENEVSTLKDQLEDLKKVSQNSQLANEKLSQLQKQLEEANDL
Kind of test: ROCK inhibition assay, standard coupled enzyme system ("Enzyme"). As to conditions: enzyme-linked assay. In outline:
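ROCK I (AA 6-553) at 45 nM and 30 °C with 45 μM ATP and 200 μM peptide, in 100 mM HEPES pH 7.5, 10 mM MgCl2, 25 mM NaCl, 2 mM DTT, 1.5% DMSO. ADP output read by a PK/LDH coupled system: 2.5 mM PEP, 350 μM NADH, 30 μg/ml PK, 10 μg/ml LDH.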

The target of test [3] is T2, full length Aurora-A (AA 1-403) (Homo sapiens, UniProt O14965).
T2 construct: full length Aurora-A (AA 1-403)
T2 sequence (O14965 1-403): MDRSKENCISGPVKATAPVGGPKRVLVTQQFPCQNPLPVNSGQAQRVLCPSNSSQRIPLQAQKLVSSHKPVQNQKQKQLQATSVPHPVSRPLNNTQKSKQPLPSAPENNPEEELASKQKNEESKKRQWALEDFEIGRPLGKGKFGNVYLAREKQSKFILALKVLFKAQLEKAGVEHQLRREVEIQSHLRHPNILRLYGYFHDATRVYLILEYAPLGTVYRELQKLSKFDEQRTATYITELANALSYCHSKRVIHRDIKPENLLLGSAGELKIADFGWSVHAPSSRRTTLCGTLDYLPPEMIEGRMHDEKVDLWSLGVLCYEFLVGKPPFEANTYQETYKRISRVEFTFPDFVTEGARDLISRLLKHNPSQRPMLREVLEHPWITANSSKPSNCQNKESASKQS
Kind of test: Aurora-A inhibition assay, standard coupled enzyme system. The settings on record: average Ki if more than one value determined.

Test [4] deals with T3, Aurora-C (Homo sapiens, UniProt Q9UQB9).
T3 sequence (Q9UQB9 1-309): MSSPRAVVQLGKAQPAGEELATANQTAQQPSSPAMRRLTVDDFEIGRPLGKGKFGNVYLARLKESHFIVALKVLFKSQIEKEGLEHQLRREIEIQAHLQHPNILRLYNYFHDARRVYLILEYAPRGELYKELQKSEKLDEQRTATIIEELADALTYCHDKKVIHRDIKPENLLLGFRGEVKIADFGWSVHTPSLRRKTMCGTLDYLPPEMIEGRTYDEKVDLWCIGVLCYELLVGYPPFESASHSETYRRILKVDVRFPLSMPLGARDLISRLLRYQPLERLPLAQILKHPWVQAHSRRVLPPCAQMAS
Kind of test: Aurora-C inhibition assay, coupled enzyme system as for Aurora-A. As to conditions: average Ki if more than one value determined. The method, then: Compounds were screened for their ability to inhibit full length Aurora-A (AA 1-403) activity using a standard coupled enzyme system (Fox et al., Protein Sci. 7, pp. 2249 (1998)). Reactions were carried out in a solution containing 100 mM HEPES (pH 7.5), 10 mM MgCl2, 25 mM NaCl, 300 μM NADH, 1 mM DTT and 3% DMSO. Final substrate concentrations in the assay were 200 μM ATP (Sigma Chemicals, St Louis, Mo.) and 800 μM peptide (LRRASLG, American Peptide, Sunnyvale, Calif.). Reactions were carried out at 30° C. and 35 nM Aurora-A. Final concentrations of the components of the coupled enzyme system were 2.5 mM phosphoenolpyruvate, 200 μM NADH, 60 μg/ml pyruvate kinase and 20 μg/ml lactate dehydrogenase.
An assay stock buffer solution was prepared containing all of the reagents listed above with the exception of ATP and the test compound of interest. The assay stock buffer solution (60 μl) was incubated in a 96 well plate with 2 μl of the test compound of interest at final concentrations spanning 0.002 μM to 30 μM at 30° C. for 10 min. Typically, a 12 point titration was conducted by preparing serial dilutions (from 1 mM compound stocks) with DMSO of the test compounds in daughter plates. The reaction was initiated by the addition of 5 μl of ATP (final concentration 200 μM). Rates of reaction were obtained using a Molecular Devices Spectramax plate reader (Sunnyvale, Calif.) over 10 min at 30° C. The Ki values were determined from the rate data as a function of inhibitor concentration using computerized nonlinear regression (Prism 3.0, Graphpad Software, San Diego, Calif.). Aurora-C activity was screened in a similar manner using Aurora-C protein. Aurora-B activity was screened using a radioactive assay, such as described in Examples 1 and 2, but using Aurora-B protein.

In test [5] the target is Aurora-B (Homo sapiens, UniProt Q96GD4). In words: Aurora-B inhibition assay, radioactive assay. The settings on record: average Ki if more than one value determined. In outline:
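Aurora-B protein substituted into the standard radioactive kinase format: reaction quenched with TCA, product captured on glass fiber filters and 33P counted. Ki(app) derived by fitting background-corrected counts against inhibitor concentration.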

JAK2, sequence (O60674 whole entry, species assumed): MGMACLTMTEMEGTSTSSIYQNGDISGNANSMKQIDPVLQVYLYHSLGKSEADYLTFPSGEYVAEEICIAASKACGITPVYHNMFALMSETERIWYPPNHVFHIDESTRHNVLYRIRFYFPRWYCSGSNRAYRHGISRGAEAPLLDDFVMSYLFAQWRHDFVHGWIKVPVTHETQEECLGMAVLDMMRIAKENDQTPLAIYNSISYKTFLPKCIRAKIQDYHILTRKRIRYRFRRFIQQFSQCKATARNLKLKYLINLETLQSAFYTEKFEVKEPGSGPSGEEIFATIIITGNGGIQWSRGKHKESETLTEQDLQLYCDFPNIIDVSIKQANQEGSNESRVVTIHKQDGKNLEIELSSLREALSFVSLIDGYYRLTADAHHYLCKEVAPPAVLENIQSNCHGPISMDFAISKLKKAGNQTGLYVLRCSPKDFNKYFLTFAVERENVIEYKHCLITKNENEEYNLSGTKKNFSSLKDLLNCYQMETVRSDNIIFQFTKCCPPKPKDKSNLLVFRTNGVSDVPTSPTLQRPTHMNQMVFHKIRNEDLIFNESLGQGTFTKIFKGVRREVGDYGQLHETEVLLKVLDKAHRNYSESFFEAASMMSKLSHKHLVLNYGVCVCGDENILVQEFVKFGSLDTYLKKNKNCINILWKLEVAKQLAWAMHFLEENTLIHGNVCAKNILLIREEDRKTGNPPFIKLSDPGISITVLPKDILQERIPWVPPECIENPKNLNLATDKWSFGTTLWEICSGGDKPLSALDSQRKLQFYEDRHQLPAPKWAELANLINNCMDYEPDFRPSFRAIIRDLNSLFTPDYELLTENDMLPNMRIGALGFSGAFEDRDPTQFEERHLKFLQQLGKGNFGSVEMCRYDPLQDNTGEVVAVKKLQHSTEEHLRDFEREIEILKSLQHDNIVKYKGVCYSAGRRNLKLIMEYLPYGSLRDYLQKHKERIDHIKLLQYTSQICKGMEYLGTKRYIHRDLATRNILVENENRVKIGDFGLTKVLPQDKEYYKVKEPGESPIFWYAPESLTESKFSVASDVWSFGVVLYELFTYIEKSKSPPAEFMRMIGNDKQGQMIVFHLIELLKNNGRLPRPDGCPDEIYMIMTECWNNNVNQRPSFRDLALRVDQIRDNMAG
Aurora-B, sequence (Q96GD4 whole entry): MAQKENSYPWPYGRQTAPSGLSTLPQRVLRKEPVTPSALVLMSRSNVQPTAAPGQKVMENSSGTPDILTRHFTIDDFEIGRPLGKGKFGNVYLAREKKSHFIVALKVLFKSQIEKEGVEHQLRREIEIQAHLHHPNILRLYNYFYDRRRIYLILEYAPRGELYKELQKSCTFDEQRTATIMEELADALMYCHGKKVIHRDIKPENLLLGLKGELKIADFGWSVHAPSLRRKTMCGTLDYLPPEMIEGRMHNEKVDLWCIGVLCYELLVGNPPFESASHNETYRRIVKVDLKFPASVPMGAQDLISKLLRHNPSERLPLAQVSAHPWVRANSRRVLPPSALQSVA

For `CC(=O)NCCNC(=O)[C@H](C)Nc1nc(-c2c[nH]c3ncc(Cl)cc23)ncc1F` [Compound 444], the pKi is 5.30 to 6.30 in test [1]; 5.30 to 6.30 in test [2]; more than 6.30 in test [3]; more than 6.30 in test [4]; more than 6.30 in test [5].
With `C[C@H](Nc1nc(-c2c[nH]c3ncc(Cl)cc23)ncc1F)C(=O)NCCn1cccc1` [Compound 443], the pKi was more than 6.30 in test [1]; 5.30 to 6.30 in test [2]; more than 6.30 in test [3]; more than 6.30 in test [4]; more than 6.30 in test [5].
Consider `C[C@H](Nc1nc(-c2c[nH]c3ncc(Cl)cc23)ncc1C(F)(F)F)c1ccc(F)cc1` [Compound 371], for which the pKi in test [1] is more than 6.30; in test [2], 5.30 to 6.30; in test [3] it was more than 6.30; in test [4], more than 6.30; in test [5] it was more than 6.30.
With `C[C@H](Nc1nc(-c2c[nH]c3ncc(Cl)cc23)ncc1F)c1ccc(F)cc1` [Compound 285], the pKi is 5.30 to 6.30 in test [2], more than 6.30 in test [3], more than 6.30 in test [4] and more than 6.30 in test [5].
Regarding `Fc1cnc(-c2c[nH]c3ncc(Cl)cc23)nc1NCC1CCCN1` (centres unmarked) [Compound 328], the negative logarithm of the Ki (pKi) in test [2] was 5.30 to 6.30; in test [3], more than 6.30; in test [4] it was more than 6.30; in test [5] it was more than 6.30.
As to `CNC(=O)c1cc(N[C@@H](C)c2ccc(F)cc2)nc(-c2c[nH]c3ncc(Cl)cc23)n1` [Compound 359], the pKi was 5.30 to 6.30 in test [2], more than 6.30 in test [3], more than 6.30 in test [4] and more than 6.30 in test [5].
With `O=C(CNc1nc(-c2c[nH]c3ncc(Cl)cc23)nc2ccccc12)NCC(F)(F)F` [Compound 427], the pKi in test [2] is 5.30 to 6.30; in test [3] it was more than 6.30; in test [4], 5.30 to 6.30; in test [5], 5.30 to 6.30.
As for `Clc1cnc2[nH]cc(-c3cccc(NC4CCCCC4)n3)c2c1` [Compound 290], the pKi in test [2] was 5.30 to 6.30; in test [3], more than 6.30; in test [4] it was 5.30 to 6.30; in test [5], 5.30 to 6.30.
Turning to `C[C@H](Nc1nc(-c2c[nH]c3ncc(Cl)cc23)ncc1F)C(=O)NCCNS(C)(=O)=O` [Compound 368], the pKi in test [2] is 5.30 to 6.30; in test [3], more than 6.30; in test [4], more than 6.30; in test [5], more than 6.30.
With `Fc1cnc(-c2c[nH]c3ncc(Cl)cc23)nc1NCc1ccccn1` [Compound 316], the pKi in test [2] is 5.30 to 6.30; in test [3], more than 6.30; in test [4], more than 6.30; in test [5], more than 6.30.
On to `Fc1cnc(-c2c[nH]c3ncc(Cl)cc23)nc1NC1CCNCC1` [Compound 345], for which the negative logarithm of the Ki (pKi) in test [2] was more than 6.30; in test [3], more than 6.30; in test [4], 5.30 to 6.30; in test [5], 5.30 to 6.30.
For the molecule `Fc1cnc(-c2c[nH]c3ncc(Cl)cc23)nc1NCC1CCNCC1` [Compound 327], the pKi in test [2], in test [3], in test [4] and in test [5] was more than 6.30 each time.
On to `Cc1cc(N[C@@H](C)c2ccc(F)cc2)nc(-c2c[nH]c3ncc(Cl)cc23)n1` [Compound 324], for which the pKi is 5.30 to 6.30 in test [2], more than 6.30 in test [3], more than 6.30 in test [4] and more than 6.30 in test [5].
Regarding `CNC(=O)CNc1nc(-c2c[nH]c3ncc(Cl)cc23)ncc1C(C)C` [Compound 430], the pKi in test [2] was 5.30 to 6.30; in test [3] it was more than 6.30; in test [4] it was 5.30 to 6.30; in test [5], 5.30 to 6.30.
`Fc1cnc(-c2c[nH]c3ncc(Cl)cc23)nc1NC1CCCNC1` (centres unmarked) [Compound 347]: the pKi was more than 6.30 in test [2], more than 6.30 in test [3], 5.30 to 6.30 in test [4] and 5.30 to 6.30 in test [5].
For `CC(C)S(=O)(=O)NCCNC(=O)[C@H](C)Nc1nc(-c2c[nH]c3ncc(Cl)cc23)ncc1F` [Compound 454], the pKi in test [2] was 5.30 to 6.30; in test [3] it was more than 6.30; in test [4], 5.30 to 6.30; in test [5] it was 5.30 to 6.30.
As to `CNC(=O)[C@H](CO)Nc1nc(-c2c[nH]c3ncc(Cl)cc23)ncc1F` [Compound 387], the pKi was 5.30 to 6.30 in test [2], more than 6.30 in test [3], more than 6.30 in test [4] and more than 6.30 in test [5].
Take `C#Cc1cnc2[nH]cc(-c3ncc(F)c(N[C@@H](C)c4ccc(F)cc4)n3)c2c1` [Compound 374]: the pKi in test [2] was 5.30 to 6.30; in test [3] it was more than 6.30; in test [4], more than 6.30; in test [5], more than 6.30.
For the molecule `CNC(=O)[C@H](C)Nc1nc(-c2c[nH]c3ncc(Cl)cc23)ncc1F` [Compound 340], the pKi was 5.30 to 6.30 in test [2], more than 6.30 in test [3], more than 6.30 in test [4] and more than 6.30 in test [5].
Regarding `Fc1cnc(-c2c[nH]c3ncc(Cl)cc23)nc1NCc1cccnc1` [Compound 317], the negative logarithm of the Ki (pKi) was 5.30 to 6.30 in test [2], more than 6.30 in test [3], more than 6.30 in test [4] and more than 6.30 in test [5].
On to `C[C@H](Nc1nc(-c2c[nH]c3ncc(Cl)cc23)ncc1F)c1cccc(O[C@H]2CCNC2)c1` [Compound 321], for which the pKi in test [2] is 5.30 to 6.30; in test [3], more than 6.30; in test [4] it was more than 6.30; in test [5] it was 5.30 to 6.30.
For the molecule `Clc1ccc(CNc2ccnc(-c3c[nH]c4ncc(Cl)cc34)n2)cc1` [Compound 237], the pKi in test [2] is 5.30 to 6.30; in test [3], more than 6.30; in test [4] it was more than 6.30; in test [5], more than 6.30.
With `CNCCNC(=O)[C@H](C)Nc1nc(-c2c[nH]c3ncc(Cl)cc23)ncc1F` [Compound 452], the pKi was 5.30 to 6.30 in test [2], more than 6.30 in test [3], more than 6.30 in test [4] and more than 6.30 in test [5].
On to `C[C@H](Nc1nc(-c2c[nH]c3ncc(Cl)cc23)ncc1F)c1cccc(N)c1` [Compound 333], for which the pKi in test [2] was 5.30 to 6.30; in test [3], more than 6.30; in test [4], more than 6.30; in test [5] it was more than 6.30.
With `C[C@H](Nc1nc(-c2c[nH]c3ncc(Cl)cc23)ncc1F)c1cccc(O)c1` [Compound 306], the negative-log Ki (pKi) is 5.30 to 6.30 in test [2], more than 6.30 in test [3], more than 6.30 in test [4] and more than 6.30 in test [5].
For `CC(C)c1cnc(-c2c[nH]c3ncc(Cl)cc23)nc1N[C@@H](C)C(=O)NCC(F)(F)F` [Compound 429], the negative logarithm of the Ki (pKi) was 5.30 to 6.30 in test [2], more than 6.30 in test [3], 5.30 to 6.30 in test [4] and 5.30 to 6.30 in test [5].

As a reminder, the pKi is the negative decadic logarithm of the Ki, by convention in mol/L.
